SMILES | melting point
CCOC1C(NC(C)=O)CC(OC)OC1C (stereo not drawn) | 199 to 200 °C
CC(=O)Nc1ccc2c(c1)C(=O)CC1(CCN(Cc3ccc([N+](=O)[O-])cc3)CC1)O2 | > 250 °C
CC1(C)CC(=C(c2ccc(O)cc2)c2ccc(CCO)cc2)CC(C)(C)C1 | 159 to 160 °C
CCC(=O)c1ccc(O)c(C(C)C)c1 | 105 °C
ClCCOc1cccc2c1OCCO2 | 73 °C
CCOC(=O)C(=CNc1ncnc2ccc(CC)cc12)C(=O)OCC | 104 to 106 °C
COC(=O)C(NCc1cn(Cc2ccccc2)c2ccccc12)c1ccccc1 (racemic) | 72 to 75 °C
CCOc1nc2c(nc1C(=O)Cl)c(C)nn2CC | 109 to 111 °C
CC#CCOc1cc(N(C)c2ccccc2)ncn1 | 57.6 °C
Oc1c2c(nc3ccc(C4CCCCC4)cc13)CCCC2 | 292 to 295 °C
O=C(OCc1ccccc1)N1CCC(O)(CNc2ccc(Cl)c(Cl)c2)CC1 | 128 to 130 °C
CCC1(O)NC(=O)C2(c3ccc(Cl)cc3)CC12 (stereo not drawn) | 117 to 124 °C
O=C1NCCc2c(OCCCN3CCCCC3)cccc21 | 112 to 114 °C
O=C(O)C12CCCCC1CSc1ccccc12 (stereo not drawn) | 200 to 203 °C
O=[N+]([O-])N=C1NCCN1Cc1cc(Br)no1 | 149 °C
COCCc1nc2c(N)nc3cc(Br)ccc3c2s1 | 172 to 175 °C
CC(C)(C)NC(=O)c1nn(-c2ccc(F)cc2Cl)c2c1C1CCC2C1 (stereo not drawn) | 122 to 124 °C
Nc1nc(Nc2ccccc2)sc1C=O | 212 to 213 °C
N#CCCCCC(=NO)c1ccc(Br)cc1 | 86.5 to 88 °C
O=CCOc1ccc(Cl)cc1 | 122 to 128 °C
C=CCC(Cc1ccc(Cl)c(Cl)c1)NC(=O)c1cc(C)cc(C)c1 (stereo not drawn) | 155 to 157 °C
FC(F)(F)c1cc(Cl)c(-n2cccn2)c(Cl)c1 | 83 to 85 °C
C[C@@H](Cc1c2n(c3cc(F)c(O)cc13)CCC2)NC(=O)OC(C)(C)C | 198 to 199 °C
O=c1[nH]c2cc3cc(N4CCCC4)ccc3nc2[nH]1 | > 300 °C

SMILES | melting point
CCCCC(C)(C)C=CC(OC(C)=O)C1C(C)CC2OC(=O)CC21 (stereo not drawn) | 83 to 83.5 °C
O=C(O)CCCCC=C(c1ccccc1)c1ccccc1 | 71.5 to 72.5 °C
CCc1cc(C(=O)c2ccccc2Cl)c(-n2cnnc2CNC(=O)c2ccccc2)s1 | 140 to 142 °C
O=C(Nc1ccc(Cl)c(C(=O)Nc2ccccc2)c1O)Nc1cccc(Cl)c1Cl | 244 to 245 °C
Cc1ccc(N2CCN(c3cccc(Cl)c3)C2C(Cl)(Cl)Cl)cc1 (stereo not drawn) | 34 to 36 °C
O=C(CNS(=O)(=O)c1ccc2ccccc2c1)NCC(NC(=O)C1CCN(c2ccncc2)CC1)C(=O)N1CCCCC1 (stereo not drawn) | 200 to 202 °C
CCCCCCCCCCCCNC(=O)c1cc(Br)c(OCCn2cnnn2)c(-c2cccc(C(F)(F)F)c2)c1 | 91.5 to 92.6 °C
Cc1cc2c(c3ccc(=O)[nH]c13)OC(C(O)CN=[N+]=[N-])C2 (stereo not drawn) | 173 to 175 °C
O=C(O)c1cccc2c1ccn2-c1ccnc(N[C@H]2CC[C@H](O)CC2)n1 | 259 to 261 °C
O=C(O)c1cc2cccnc2[nH]1 | > 260 °C
CCOC(=O)C1=C(C)Nc2nc(N3CCOCC3)nc(N3CCOCC3)c2C1c1ccccn1 (stereo not drawn) | 226 °C
COC1C(NC(=O)C(F)(F)F)CC(O)OC1C (stereo not drawn) | 185 °C
Cn1c(COc2ccc(CC3SC(=O)NC3=O)cc2)nc2ccc(Oc3cccc(NC(=O)Nc4ccc5c(c4)OCO5)c3)cc21 (stereo not drawn) | 179 to 182 °C
O=C(O)c1csc(-c2ncccc2O)n1 | > 300 °C
Cn1c(=O)c2c(ncn2CCCN2CCN(c3nccnc3Cl)CC2)n(C)c1=O | 205 to 207 °C
Fc1ccc(N2CCN(Cc3cn4cc(Cl)cc(Cl)c4n3)CC2)cc1 | 126 to 128 °C
O=C(NCCCC1OCC(c2cccc3ccccc23)CO1)C(F)(F)F (stereo not drawn) | 83 to 84 °C
CCC1(CC)C(=O)Nc2ccccc21 | 156 to 159 °C
O=C(O)c1cn(CCF)c2c(F)c(F)c(F)cc2c1=O | 208 to 210 °C
CCOC(=O)C(=CN)C(=O)c1cc(F)c(F)c(F)c1F | 118 to 119 °C
CN(C)CCOc1cc2c(Nc3ccc(F)c(Cl)c3)c(C#N)cnc2cn1 | 131 to 132 °C
CCCCCCCCCCCc1cc2ccc(C(=O)OC)cc2[nH]1 | 84 to 86 °C
Nc1cc(F)c2[nH]nc(NC(=O)c3ccccc3)c2c1 | 208 °C
Cc1nccn1-c1ccc(N2C[C@H](CNc3ccon3)OC2=O)cc1F | 106 to 107 °C

Now from value to compound:

melting point | SMILES
126 to 129 °C | CCC1(CC(=O)O)OCCc2c1[nH]c1c(OCC(F)(F)F)cccc21 (stereo not drawn)
283 to 291 °C | O=C(O)c1cn(-c2ccc(F)cc2)c2c(F)c(N3Cc4cccc(Cl)c4C3)c(F)cc2c1=O
167 to 168 °C | COc1ccc(C)cc1NC(=O)Nc1ccc(N2CCN(C(=O)OC(C)(C)C)C(C)C2)cc1 (stereo not drawn)
137 to 138 °C | CC[C@H](C)[C@H](OCc1cccc(F)c1F)[C@H]1[C@H]([N+](=O)[O-])[C@H](c2ccccc2)N[C@@H]1C(=O)NCC(=O)O
277 to 283 °C | Cc1nc2[nH]c(=O)[nH]c2cc1-c1ccc(N)cc1
> 210 °C | O=C(O)c1cc(NCc2ccc(F)cc2)ccc1O
118 to 120 °C | COc1cccc(OC)c1/C=C/S(=O)(=O)CS(=O)(=O)/C=C/c1c(OC)cccc1OC
28.6 °C | CCCCCc1cnc(-c2ccc(F)cc2)nc1
186 to 188 °C | Cc1csc2c(CS(=O)c3nc4ccccc4[nH]3)nccc12 (stereo not drawn)
218 to 220 °C | CC1=C(C(=O)OC(C)C)C(c2ccccc2F)c2c[nH]nc2N1 (stereo not drawn)
50 to 53 °C | CCCCC1=NC2(CCCC2)C(=O)N1Cc1ccc(-c2ccccc2S(=O)(=O)Nc2onc(C)c2C)c(CCC(C)C)c1
260 to 262 °C | CCCC=NNc1cc2c(nn1)CCN(C(=O)c1ccc(-c3ccccc3)cc1)C2
255 to 256 °C | COc1cc(Br)c(-n2c(=O)[nH]c3c(-c4ccccc4C(F)(F)F)nc(C)nc32)c(OC)c1
102 to 104 °C | COCCCn1nnnc1-c1cc(-c2cc(C(C)C)ccc2OC)c(OCc2ccccc2)cc1OCc1ccccc1
133 to 137 °C | CC(C)(C)OC(=O)NC1C(=O)N(C(O)C(=O)OC(c2ccccc2)c2ccccc2)C1CBr (stereo not drawn)
124 °C | CCOC(=O)/C=C/c1ccc(O)cc1Oc1ncc(C(F)(F)F)cc1Cl
113 to 117 °C | COC(=O)c1cc(C=O)cnc1C1=NC(C)(C(C)C)C(=O)N1 (stereo not drawn)
122 to 123 °C | COc1ccc(-c2ccccc2)cc1N1CCN(C(=O)Nc2cc3ccccc3nc2OC)CC1
96 to 97 °C | O=C=Nc1ccc(Oc2cccc(Cl)n2)cc1
131 to 134 °C | CN(C)c1ccc(N=Nc2ccccc2C(=O)NCCNC(=O)OC(C)(C)C)cc1
89 to 91 °C | O=C(O)CCCCCOc1ccccc1C(=O)c1ccccc1O
73 to 76 °C | O=S(=O)(c1cc(Br)[nH]c1-c1ccc(Cl)cc1)C(F)(F)F
144 to 146 °C | CN(c1ccccc1)c1ncccc1NC(=O)c1ccccc1Br
169 to 175 °C | Cc1cc(-c2cccc(S(F)(F)(F)(F)F)c2)c(S(C)(=O)=O)cc1C(=O)NC(=N)N
196 to 200 °C | NC(=O)Nc1c(C(=O)c2ccccc2)[nH]c2cc(Cl)ccc12
